Results published in patent US10660874B2, “Ecteinamycin, compositions and uses thereof” (Wisconsin Alumni Research Foundation, priority 2014, dated 2020).
Values after ≈ are worked out from the molar mass of the structure shown.

What was measured:
MSSA (ATCC #29213) = assay: MIC, dilution antimicrobial susceptibility test; type: cell-based, Methicillin-sensitive Staphylococcus aureus; details: Methicillin-sensitive Staphylococcus aureus (MSSA); 33° C., 18 h; read-out: MIC
Protocol: (§1) Ecteinamycin was tested for antibacterial activity against C. difficile (ATCC BAA-1870), MRSA (ATCC #33591), MSSA (ATCC #29213), E. coli (ATCC #25922), P. aeruginosa (ATCC #27853), and VRE (ATCC), and MICs were determined using a dilution antimicrobial susceptibility test for aerobic (MRSA, MSSA, E. coli, P. aeruginosa, and VRE) and anaerobic (C. difficile) bacteria. Ecteinamycin was dissolved in DMSO, serially diluted to 10 concentrations (0.0313-32 μg/mL), and tested in a 96-well plate. […] Ecteinamycin and vancomycin were tested in triplicate. Six untreated media controls were included on each plate. For MRSA, MSSA, E. coli, and P. aeruginosa, the plates were incubated at 33° C. for 18 h. For C. difficile, the plate was incubated at 36° C. for 48 h anaerobically and then read visually using a mirror apparatus. All manipulations to the plate were done inside the anaerobe chamber. The MIC was determined as the lowest concentration that inhibited visible growth.

VRE (ATCC) = assay: MIC, dilution antimicrobial susceptibility test; type: cell-based, Vancomycin-resistant Enterococcus; details: Enterococcus
Protocol: as §1

[1] = Pharmacokinetic study in mice, ecteinamycin in plasma; type: in vivo; details: female, FVB, mouse, oral 5 mg/kg vs retro-orbital IV 2.5 mg/kg, dose adjusted
Protocol: An Agilent 1100 LCMS system (ESI-MS positive mode) with a Phenomenex Kinetix C18 column (100×4.6 mm, 2.6 μm) at a flow rate of 0.5 mL/min was used for all analysis. The gradient was from 75% MeOH/25% 1 mM ammonium acetate in H2O to 93% MeOH/7% 1 mM ammonium acetate in H2O in 11 mins, then 93% MeOH/7% 1 mM ammonium acetate in H2O to 100% MeOH for 0.1 min and holding 100% MeOH for 3.9 mins.
A standard curve was constructed using known concentrations of ecteinamycin (1000, 500, 250, 125, 62.50, 31.25, 15.625, 7.8125, 3.90625 ng/mL) in blank human plasma. Linear regression analysis was performed on the peak areas, and the resulting linear equation was used to calculate the ecteinamycin concentrations of quality control (QC) standards of ecteinamycin in human plasma (800, 200, 25, 12.5 ng/mL). The limit of detection was determined to be 31.25 ng/mL, and the limit of quantification was determined to be 62.50 ng/mL.
Eight-to-nine-week-old FVB female mice weighing 20.5 to 25.6 g were used for all studies. […]
Ecteinamycin was formulated with polyethylene glycol (PEG) 300, 25 mM Tris (1:1), pH 8.9. […] Sample quantitation was determined by weighted (R^2) linear regression using a 9-point curve. […] The % oral bioavailability was calculated from the concentration of ecteinamycin (adjusted for dose) in plasma between oral and IV dose: [ecteinamycinoral]/[ecteinamycinIV]×100. […]

S. cerevisiae = assay: MIC against S. cerevisiae; type: cell-based; details: Saccharomyces cerevisiae

## C=C1OC(=O)C(C(=O)CC2OC(C(C)C(O)C(CC)C(=O)C(C)(O)C3CCC(CC)(C4CCC(O)(C(C)OC)C(C)O4)O3)C(C)CC2C)=C1O (centres unmarked) [ecteinamycin]
MSSA (ATCC #29213)
  MIC: 0.125 µg/mL (≈ 0.176 µM)
VRE (ATCC)
  MIC: 0.25 µg/mL (≈ 0.353 µM)
[1]; after 30 mins
  bioavailability at 30 min: 10.9%
[1]; after 1 h
  bioavailability at 1 h: 29.3%
S. cerevisiae
  MIC: 8 µg/mL (≈ 11.3 µM)
